Where no end group is shown, it is not given here.
Key:
[1] = system: HeLa cells pre-infected with L2; assay: Secondary EB infection of pre-infected HeLa cells (Tarp translocation, stability, EB entry); format: cell-based, C. trachomatis
Experimental: FIG. 8 depicts (A-C(I-IV)) Tarp translocated by EBs is a target of CPAF-mediated degradation. Uninfected and HeLa cells pre-infected with L2 for 30 hrs were treated with inhibitory peptides and infected with EBs for 10 min Tarp translocation was indirectly visualized with an anti-phosphotyrosine antibody (A) and quantified by counting 50 separate cells (B). The stability of newly translocated Tarp was assessed by infecting cells as in (A) but with S^35-labeled EBs, followed by sequential immunoprecipitation of Tarp and MOMP and Phosphoimager analysis of precipitated material (C (I-IV)). Tarp is degraded in pre-infected HeLa cells in a CPAF-dependent manner. (D) Effective inhibition of CPAF activity by inhibitory peptide. IC50 values were determined by assessing CPAF cleavage of an Abz-tagged CPAF substrate (SEQ ID NO:9) by HPLC. Assays were performed the presence of increasing amount of inhibitors. […] CPAF cleavage of GST-chlamydial substrates was performed as in FIG. 4B but in the presence of SEQ ID NO:7 and SEQ ID NO:11 peptides (E). For in vivo inhibition effects on Chlamydia (L2), infected HeLa cells were treated with peptides at 12 hpi, and harvested at 30 hpi (F). […] (G and H) CPAF restricts EB entry into preinfected cells. Cells were infected as in (A), except that the secondary infections (30 min) were performed with fluorescently labeled EBs and infected cells were not permeabilized. […] Extracellular bacteria were determined. […] The number of internalized EBs was quantified per cell (H). […]
Next, HeLa cells or inclusion-containing HeLa cells were infected with ^35S-radiolabeled EBs, followed by immunoprecipitation of Tarp at various times after infection to determine the stability of translocated Tarp under these conditions. […] Tarp and MOMP were immunoprecipitated using anti-Tarp and anti-MOMP protein A sepharose beads (available from GE Healthcare), detected in a Typhoon9410 Variable Image Phosphor Imager (available from Amersham Biosciences), and quantified using ImageQuant 5.1TL software (available from GE Healthcare). […]

[2] = system: C. caviae infected HeLa cells; assay: Host cell death (condensed nuclei) in C. caviae infected cells; format: cell-based; details: peptide-treated HeLa cells; listed as EQ ID NO:7
Experimental: FIG. 12 depicts (A) low-magnification view of C. trachomatis LGV-L2 infected HeLa monolayers (30 h) treated with SEQ ID NO:7 or SEQ ID NO:11 peptides. (B) The frequency of condensed nuclei in treated cells is dependent on peptide concentration and Chlamydia infection. (C-D) Toxicity of CPAF inhibitors to Chlamydia-infected cells is observed in non-myeloid cells including human embryonic kidney cells HEK293 (C) and mouse embryo fibroblasts (D). […] (F-G) Cell death induced by anti-CPAF peptides requires Caspase-1 activation. HeLa cells infected with C. muridarum were treated with Ac-YVAD-CMK at 2 hpi, SEQ ID NO:7 peptide or SEQ ID NO:11 control peptide at 12 hpi and the percentage of infected cells with condensed nuclei was assessed at 48 hpi (F). Mouse lung fibroblasts (MLF) derived from congenic WT, ICE1^−/− and ASC^−/− animals were infected with C. muridarum and treated with the indicated concentrations of anti peptides 12 hpi. The percentage of infected cells with condensed nuclei was assessed at 48 hpi (G). LGV-L2 inclusions were immunostained with anti-L2 antisera and C. muridarum and C. caviae inclusions were immunostained with an anti-chlamydial LPS monoclonal antibody. Cell death in infected and uninfected cells treated with CPAF inhibitory peptides or control peptides was determined by counting the number of condensed nuclei of ˜1000 cells.

“SLFYSPMVPHFWAELRNHYATSGLKRRRRRRRRR-NH2 [SEQ ID NO:7]” was tested, and the “Accumulation of Tyr-phosphorylated proteins at EB attachment sites” value ([1]; pre-infected HeLa cells (30 h), 12 μM peptide) was “restored the accumulation”, the “Degradation of Tarp in pulse-chase experiments” value ([1]; pre-infected HeLa cells, 35S-labeled EBs, 12 μM peptide) was “blocked the degradation of Tarp” and the “EB entry into preinfected cells” value ([1]; secondary infection 30 min, labeled EBs) was “increased EB entry”. The “Condensed nuclei / cell death in C. caviae infected cells” value [2] was “do not cause cell death”.

— patent US8617563B2, “Antichlamydial agents” (Duke University, priority 2011, dated 2013)
